# According to patent publication US8538706B2, “Method for affinity scoring of peptide/protein complexes” (Lonza Biologics PLC, priority 2004, dated 2013):
# What was measured:
# HLA-A*0101 (A1) = HLA-A*0101 (A1) (Homo sapiens, UniProt P04439, A114D/A174V/A182V/D101N/D185E/E176A/E190D/L180R/Q94H/R68K/S129P/T187R/V100A/V91M/W191G); details: cited from earlier work
# HLA-A*2402 = HLA-A*2402 (Homo sapiens, UniProt P04439, D101N/D140Y/D185E/E176V/E190D/F33S/G103R/G107R/I119L/I121M/I306V/K335N/L105A/L180Q/L300P/N151K/N90K/Q86E/Q94H/R106L/R138H/R89G/T104I/T345S/V100E/W191G/Y123F); test: independent binding assay of fluorescent reference peptide (Kdref), A24; details: single-site curve fitting, approximate
# Protocol: 50% inhibitory concentrations (IC50-values) were calculated as averages obtained from at least 3 independent measurements, i.e. from different cell preparations and peptide dilutions. Test peptides >95% pure (Thermo Electron GmbH) were stored at 10 mM in DMSO at −20° C. Cysteine-containing peptides were stored at 10 mM in 1 mM DTT DMSO. […] IC50-values were converted to binding free energies (AG) using the relationships Kd=IC50Kdref/cref (7) and AG=RT ln(Kd) (8) where Kdref and cref are the dissociation constant and formal concentration of the reference peptide, respectively. The Kdref values were derived from an independent binding assay in which the fluorescence intensity was measured as a function of increasing concentrations of reference peptide.
substance,measurement,setting,value
IYQYMDDLY,binding to A1 in words,HLA-A*0101 (A1); Tyr at P2,medium-affinity binder
RYLKC(5Fluorescein)QQLL,Kd,HLA-A*2402,~30 nM
YSDSVYGDT,Kd,HLA-A*0101 (A1); strongest A1-binding peptide from HPV-18,188 nM
